{"source": "paper PMC5442763", "about": "“Selective Inhibition of ADAM17 Efficiently Mediates Glycoprotein Ibα Retention During Ex Vivo Generation of Human Induced Pluripotent Stem Cell‐Derived Platelets” (Stem Cells Translational Medicine, 2016)", "key": {"[1]": {"molecular_target": "T1, Human ADAM17 (Homo sapiens, UniProt P78536)", "T1 construct": "purchased R&D Systems", "T1 sequence (P78536 215-824)": "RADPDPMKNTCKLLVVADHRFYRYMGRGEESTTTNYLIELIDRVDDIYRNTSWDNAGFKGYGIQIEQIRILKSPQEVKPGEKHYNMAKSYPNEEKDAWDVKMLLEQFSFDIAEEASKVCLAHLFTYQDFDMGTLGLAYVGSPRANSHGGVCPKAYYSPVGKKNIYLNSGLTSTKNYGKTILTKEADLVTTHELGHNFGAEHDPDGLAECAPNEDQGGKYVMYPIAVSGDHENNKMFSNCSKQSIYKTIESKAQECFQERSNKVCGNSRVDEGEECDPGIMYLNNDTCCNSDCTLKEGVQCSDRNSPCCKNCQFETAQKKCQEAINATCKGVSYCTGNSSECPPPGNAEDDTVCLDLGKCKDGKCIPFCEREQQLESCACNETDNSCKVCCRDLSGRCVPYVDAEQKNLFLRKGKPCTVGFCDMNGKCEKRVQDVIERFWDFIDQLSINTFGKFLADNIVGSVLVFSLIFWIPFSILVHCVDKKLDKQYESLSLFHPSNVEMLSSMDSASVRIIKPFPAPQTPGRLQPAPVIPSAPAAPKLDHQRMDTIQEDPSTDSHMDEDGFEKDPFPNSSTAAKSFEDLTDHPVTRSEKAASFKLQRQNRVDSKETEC", "test": "MMP and ADAM activity assay (fluorescence-based, cell-free): ADAM17", "assay_type": "biochemical", "description": "(§1) Human ADAM17, ADAM10, and MMP17 were from R&D Systems (Minneapolis, MN, http://www.rndsystems.com), and human MMP1, MMP2, MMP3, MMP8, MMP9, MMP13, and MMP14 were from EMD Millipore. MMP1, MMP2, MMP8, MMP9, MMP13, and MMP17 were activated using p‐aminophenylmercuric acetate (Sigma‐Aldrich) before testing. Fluorogenic substrates for measuring activity of ADAM10 and ADAM17 [Nma‐[…](Dnp)r‐NH2, based on the cleavage site of TNF‐α]; MMP1, MMP9, MMP13, and MMP14 [Dnp‐P‐Cha‐GC(Me)HAK(N‐Me‐Abz)‐NH2]; MMP3 [MOCAc‐RPKPVE‐Nva‐WRK(Dnp)‐NH2]; and MMP2, MMP8, and MMP17 [MOCAc‐PLGL‐A2pr(Dnp)‐AR‐NH2] were all provided by Peptide Institute (Osaka, Japan, https://www.peptide.co.jp/en) and used as substrates. In addition, inhibitory activities were measured using LC/MS/MS with a GPIbα‐based substrate peptide ([…]), a C terminal‐based standard peptide ([…]), and an internal standard peptide ([…]). These peptides were synthetized by Scrum (Tokyo, Japan, http://www.scrum‐net.co.jp/english/top_en.htm)."}, "[2]": {"molecular_target": "T2, human MMP1 (Homo sapiens, UniProt P03956)", "T2 construct": "purchased EMD Millipore", "T2 sequence (P03956 100-469)": "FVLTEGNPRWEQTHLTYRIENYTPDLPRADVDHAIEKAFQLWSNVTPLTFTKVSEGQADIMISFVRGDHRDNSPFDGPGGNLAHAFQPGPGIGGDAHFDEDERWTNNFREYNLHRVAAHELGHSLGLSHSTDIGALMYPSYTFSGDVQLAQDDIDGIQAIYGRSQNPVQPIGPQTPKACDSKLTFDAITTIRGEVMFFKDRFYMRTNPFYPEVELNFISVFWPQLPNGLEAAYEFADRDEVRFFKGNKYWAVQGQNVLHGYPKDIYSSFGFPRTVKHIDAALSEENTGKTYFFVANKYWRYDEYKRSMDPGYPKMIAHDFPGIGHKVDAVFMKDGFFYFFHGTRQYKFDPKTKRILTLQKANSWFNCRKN", "test": "MMP and ADAM activity assay (fluorescence-based): MMP1", "assay_type": "biochemical", "details": "cell-free fluorescence assay", "description": "as §1"}, "[3]": {"molecular_target": "T3, human MMP2 (Homo sapiens, UniProt P08253)", "T3 construct": "purchased EMD Millipore", "T3 sequence (P08253 110-660)": "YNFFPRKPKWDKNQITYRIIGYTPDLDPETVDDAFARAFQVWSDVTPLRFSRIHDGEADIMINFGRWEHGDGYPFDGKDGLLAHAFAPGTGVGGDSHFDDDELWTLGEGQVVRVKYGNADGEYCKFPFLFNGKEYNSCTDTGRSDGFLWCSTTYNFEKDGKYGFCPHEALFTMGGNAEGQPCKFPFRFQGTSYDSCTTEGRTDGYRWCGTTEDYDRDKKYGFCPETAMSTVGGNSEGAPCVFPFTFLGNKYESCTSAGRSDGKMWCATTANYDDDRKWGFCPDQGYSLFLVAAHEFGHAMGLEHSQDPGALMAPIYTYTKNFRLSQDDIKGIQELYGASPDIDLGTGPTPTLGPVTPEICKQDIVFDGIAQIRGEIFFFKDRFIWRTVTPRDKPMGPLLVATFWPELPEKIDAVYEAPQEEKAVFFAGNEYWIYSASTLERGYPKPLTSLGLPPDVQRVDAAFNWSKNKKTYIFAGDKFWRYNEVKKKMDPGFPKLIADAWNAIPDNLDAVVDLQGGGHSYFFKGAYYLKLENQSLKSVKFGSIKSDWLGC", "test": "MMP and ADAM activity assay (fluorescence-based): MMP2", "assay_type": "biochemical", "details": "cell-free fluorescence assay", "description": "as §1"}, "[4]": {"tested_on": "platelet aggregation", "test": "Platelet aggregation induced by thrombin or collagen", "assay_type": "cell-based"}, "[5]": {"tested_on": "imMKCL platelets", "test": "GPIbα retention in imMKCL-derived platelets", "assay_type": "cell-based, human", "experimental": "imMKCL expansion and subsequent platelet production were performed as previously reported. Briefly, imMKCLs were cultured in the presence of doxycycline for self‐replication by the expression of three doxycycline‐regulated transgenes: c‐MYC, BMI1, and BCL‐XL. imMKCLs were subsequently cultured for 5 days in the absence of doxycycline to produce platelets by turning the transgenes off, with or without 15 µmol/l KP‐457.\nFlow cytometric analysis was performed as previously described. Briefly, iPSC‐ and ESC‐derived MKs on days 22–24 and platelets in their supernatants were stained with combinations of antibodies for 30 minutes on ice (for MKs) or at room temperature (for platelets). Samples of MKs/platelets were then washed, diluted with staining medium (phosphate‐buffered saline containing 3% fetal bovine serum), and analyzed using flow cytometry (FACSAria; BD). Trucount tubes (BD) were used to quantify the MKs and platelets.\nFig. S4. The inhibitory effect of KP-457 on GPIbα shedding in platelets derived from human ESCs and immortalized megakaryocyte progenitor cell lines (imMKCLs).\nPercentages of GPIbα-expressing CD41a+ platelets produced from human ESCs (A) and immortalized megakaryocyte progenitor cell lines (imMKCLs) (B), in the absence or presence of KP-457 (15 µmol/L). * P < 0.05 compared to the vehicle group by student’s t test, N≧3. […]"}, "[6]": {"tested_on": "iPSC platelets, vWF/GPIbα-dependent aggregation", "test": "Flow cytometry-based platelet aggregation assay (ristocetin)", "assay_type": "cell-based, human", "details": "15 µmol/l KP-457 during generation; 2 mg/ml ristocetin; vs. generated in its absence", "experimental": "Flow cytometry platelet aggregation assays were performed as recently described. Aliquots of iPSC platelets, imMKCL platelets, or fresh washed human platelets were stained with anti‐CD9‐APC or anti‐CD9‐V450, and CD41a^+ platelets were counted using flow cytometry. Next, aliquots of platelets stained using anti‐CD9‐APC were mixed with platelets stained using anti‐CD9‐V450 at a 1:1 ratio (1–4 ×10^5 cells/ml each) and suspended in Tyrode‐HEPES solution containing […] PPACK (a thrombin inhibitor), 10% filtered human plasma, and 3 mmol/l CaCl2. The mixed platelets were stimulated with 2 mg/ml ristocetin or 100 µmol/l TRAP6 and 50 µmol/l ADP for 10 minutes at 37°C while swirling, fixed, and analyzed using flow cytometry. To quantify platelet aggregation, an index of double‐colored events (%) was calculated using the following formula described elsewhere: […]"}}, "note": "pIC50: −log10 of the molar value.", "data": [{"smiles": "CC#CCOc1ccc(S(=O)(=O)CC(c2ccc(CNS(C)(=O)=O)cc2)N(O)C=O)cc1", "note": "(stereo not drawn) [KP-457, N‐(2‐{[4‐(but‐2‐yn‐1‐yloxy)phenyl]sulfonyl}‐1‐[4‐(methylsulfonamidomethyl)phenyl]ethyl)‐N‐hydroxyformamide]", "values": [{"measurement": "potency relative to GM-6001, inhibition of cleavage of the TNF-α sequence", "setting": "[1]; cell-free enzyme assay", "result": 10, "unit": "times"}, {"measurement": "selectivity for ADAM17 over other MMPs and ADAM10", "setting": "[1]; cell-free enzyme assays", "result": "> 50", "unit": "times"}, {"measurement": "pIC50", "setting": "[1]; cell-free fluorescence assay, TNF-α cleavage site substrate", "result": 7.95}, {"measurement": "pIC50", "setting": "[2]", "result": "< 4.00"}, {"measurement": "pIC50", "setting": "[3]", "result": 6.14}, {"measurement": "effect on platelet aggregation induced by thrombin or collagen", "setting": "[4]", "result": "no adverse effects"}, {"measurement": "GPIbα expression on platelets under static culture", "setting": "[5]; 3 days, 37°C, in the presence of KP-457, data not shown", "result": "highly maintained"}, {"measurement": "GPIbα retention in platelets derived from imMKCLs", "setting": "[5]; KP-457 15 µmol/L", "result": "consistently observed"}, {"measurement": "ristocetin-induced vWF/GPIbα-dependent aggregation of iPSC platelets generated with inhibitor", "setting": "[6]", "result": "greater aggregation capability"}]}]}
